# Tests used:
# [1] = Inhibition of CTP (unknown origin); design: species or system Homo sapiens
# [2] = Binding affinity to Wnt/beta catenin (unknown origin) assessed as inhibition constant at 20 uM; design: species or system Homo sapiens
structure (smiles),measurement,setting,value
COC(=O)c1c(-c2ccc(OC)cc2)n(C)c2c(=O)oc3ccccc3c12,IC50,[1],8.4 µM
same,Ki,[2],10.5 µM

# — ChEMBL document CHEMBL5226302, “Small-Molecule Inhibitors Targeting the Canonical WNT Signaling Pathway for the Treatment of Cancer” (J Med Chem, 2021)
